Results on one substance are retold here after patent US20220401619A1, “A COLLAGEN SCAFFOLD” (ROYAL COLLEGE OF SURGEONS IN IRELAND, priority 2019, published 2022).

The data set in a line: Antibiotic release profile from scaffolds over 60 days. It counts as physicochemical. From the text: As shown in FIG. 3(A), in the dual-layer scaffold structure incorporating crosslinked and directly incorporated antibiotic produced as described above, the porous scaffold structure necessary for efficient tissue regeneration was maintained. In addition, the porosity (>98%) and mean pore size, essential for optimal proliferation and differentiation of osteoblasts during bone regeneration, were not compromised after the loading of the drug into the collagen structure. Depending on the incorporation method, different release kinetics of the antibiotic from the materials were obtained. […] At day 10, approximately 90% of the teicoplanin was released when it was directly loaded into the slurry during the CHA scaffold fabrication.

On to teicoplanin, for which the teicoplanin released result by setting is: (day 10, directly loaded into the slurry during CHA scaffold fabrication) “approximately 90%”; (day 60, chemically attached (crosslinked) to scaffold) “approximately 11%”.
